Where a name gives a salt, the structure may show the parent alone.
System: phospho-RB
Assay: Western blotting of phospho-RB levels in GBM spheres
Type: cell-based, human
Settings: for phospho-RB (pRB) levels: GBM spheres, 72 hours, Western blotting
Protocol: Cells were lysed in Cell Lysis Buffer (Cell Signaling, #9803) supplemented with Protease Inhibitor Cocktail (Sigma, #P8340), sonicated briefly while on ice and spun down for 30 minutes at 4° C., after which the supernatant was collected. For each sample, 2 uL of lysate was mixed well into 198 uL de-ionized water. Next, 10 uL of this diluted sample was added to a well in a 96 well plate in quadruplets and mixed with Protein Assay Dye Reagent Concentrate (Bio-Rad, #500-0006) (which was diluted 1:5 with water). BSA standards of 25 ng, 50 ng, 100 ng, 200 ng and 250 ng were also used to the plate and mixed with the reagent. The plate was read in a plate reader at 600 nm and samples were calibrated to the standards to determine the concentration of protein. Using the NuPAGE system (Invitrogen), 25 ug of protein was mixed with NuPAGE LDS 4× Sample Buffer (#NP0007), NuPAGE 10× Reducing Agent (#NP0004) and water, mixed well and heated at 96° C. for 15 minutes to denature the protein. The samples were then loaded into 4-12% Bis-Tris gels (Novex (Invitrogen), #0323) with a protein ladder (Novex (Invitrogen) Sharp Pre-stained protein ladder, #57318) and run at 100-120V for about 2 hours with NuPAGE 20×SDS MES Running Buffer (#NP0002) diluted with water. Next, the gel was taken out and loaded into a NuPAGE transfer cassette with a polyvinylidene membrane with NuPAGE 20× Transfer Buffer (#NP0006-1) diluted with water and methanol. Proteins were transferred for 1 hour at 30V at room temperature. Blocking was performed using the Millipore SNAP i.d. Protein Detection system in 0.25% non-fat dry milk in 0.1% Tween in PBS (PBST). Primary antibodies against BMI1 (Cell Signaling, #6964), mouse monoclonal antiphospho-RB, anti-CDK4, anti-STAT1, anti-PD-L1 (1:1,000) (Millipore), and housekeeping control rabbit polyclonal anti-vinculin (1:1000) (Cell Signaling) were incubated overnight with gentle rocking at 4° C. in the blocking solution. The following day, membranes were washed 3 times with PBST in the SNAP i.d. system before being incubated with secondary antibody in blocking buffer for 1 hour at room temperature. Three washes were then performed in the SNAP i.d. system. Protein signals were detected using ECL Western Blotting Substrate (Pierce, #32106) and filmed.
GBM CSCs are known to be quiescent and therefore resistant to standard chemo/radiotherapy. The retinoblastoma (Rb) tumor suppressor protein regulates cell proliferation by controlling progression through the restriction point within the G1-phase of the cell cycle. Cell cycle-dependent phosphorylation for Ser780 by cyclin D1-CDK4/6 inhibits Rb target binding and allows cell cycle progression.

Structure (SMILES)	phospho-RB (pRB) levels	phospho-RB levels, time-course (7-10 nM, time-course of 120 hours)
[2H]C([2H])([2H])Oc1ccc(Nc2nc(-c3c(C)nc4ccccn34)cs2)cc1 [Compound 15, N-(4-(methoxy-d3)phenyl)-4-(2-methylimidazo[1,2-c]pyridin-3-yl)thiazol-2-amine hydrochloride]	lowered pRB	–
[2H]C1([2H])Oc2ccc(Nc3nc(-c4c(C)nc5ccccn45)cs3)cc2O1 [Compound 17, N-(benzo[d][1,3]dioxol-5-yl-2,2-d2)-4-(2-methylimidazo[1,2-c]pyridin-3-yl)thiazol-2-amine hydrochloride]	lowered pRB	–
COc1c(F)cc(Nc2nc(-c3c(C)nc4ccccn34)cs2)cc1F [Compound 14, hydrochloride]	lowered pRB	downregulation of phospho-RB levels
